# Source: patent US8354414B2, “Substituted bicyclic pyrimidines” (Cephalon, Inc, priority 2006, dated 2013)
# pIC50: −log10 of the molar value. Read-outs that look alike come from different tables or passages of the source.
# Columns and labels:
# CDK5/GST-p25 = molecular target: T1, CDK5/GST-p25 (Homo sapiens, UniProt Q00535); experiment: Inhibition of CDK5/GST-p25 kinase activity (ELISA with time-resolved fluorescence readout); type: biochemical
# T1 construct: The final construct, encoding for full-length human CDK5; made in house; host or cells: Sf21 insect cells (baculovirus co-infection)
# Summary of the method: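 Sf21-coexpressed full-length human CDK5 with GST-p25 (p35 aa 108-307), glutathione-purified, at 2 ng/ml was reacted for 20 min at 37 °C on plate-coated GST-Rb(773-928). Buffer was 20 mM HEPES pH 7.2, 10 µM ATP, 10 mM MgCl2 and 2.5% DMSO. Phospho-Rb Ser-780 was detected by Eu-labelled antibody TRF, and IC50 curves were fitted.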
# His6-GSK-3β = molecular target: T2, His6-GSK-3β (Homo sapiens, UniProt P49841); experiment: Inhibition of His6-GSK-3β kinase activity (ELISA-based format, time-resolved fluorescence readout); type: biochemical; details: for pIC50: read-out: GSK3β IC50
# T2 construct: made in house; host or cells: Sf21 insect cells (baculovirus)
# Summary of the method: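 N-terminal His6-tagged full-length human GSK-3β (aa 2-419) expressed in Sf21 cells, 200 ng/ml, phosphorylating plate-coated GST-Rb with 20 μM ATP in pH 7.2 HEPES buffer, 30 min at 37° C. Phospho-Rb (Ser-780) detected by antibody plus Eu-labelled secondary, time-resolved fluorescence; IC50 from curves.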
# T2 sequence (P49841 2-419): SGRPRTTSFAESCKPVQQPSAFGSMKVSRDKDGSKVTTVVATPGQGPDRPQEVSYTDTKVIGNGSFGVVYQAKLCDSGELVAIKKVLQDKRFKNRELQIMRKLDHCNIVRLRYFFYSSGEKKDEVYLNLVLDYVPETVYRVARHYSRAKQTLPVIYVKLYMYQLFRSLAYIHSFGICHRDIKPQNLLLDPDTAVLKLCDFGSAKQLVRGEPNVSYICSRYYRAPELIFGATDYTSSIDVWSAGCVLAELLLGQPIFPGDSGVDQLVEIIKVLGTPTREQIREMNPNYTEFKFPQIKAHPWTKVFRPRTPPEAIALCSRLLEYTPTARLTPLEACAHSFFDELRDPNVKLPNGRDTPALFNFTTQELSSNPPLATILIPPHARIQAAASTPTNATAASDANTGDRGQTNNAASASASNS
# T1 sequence (Q00535 whole entry): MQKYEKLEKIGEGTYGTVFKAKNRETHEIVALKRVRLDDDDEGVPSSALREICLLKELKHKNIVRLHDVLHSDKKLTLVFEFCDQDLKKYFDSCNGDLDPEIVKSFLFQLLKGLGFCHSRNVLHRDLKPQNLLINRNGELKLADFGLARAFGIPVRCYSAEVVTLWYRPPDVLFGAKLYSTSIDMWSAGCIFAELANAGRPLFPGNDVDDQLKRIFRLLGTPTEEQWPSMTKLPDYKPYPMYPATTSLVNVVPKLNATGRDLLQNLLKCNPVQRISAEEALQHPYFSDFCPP
# T1 sequence (Q15078 108-307 partner limits assumed): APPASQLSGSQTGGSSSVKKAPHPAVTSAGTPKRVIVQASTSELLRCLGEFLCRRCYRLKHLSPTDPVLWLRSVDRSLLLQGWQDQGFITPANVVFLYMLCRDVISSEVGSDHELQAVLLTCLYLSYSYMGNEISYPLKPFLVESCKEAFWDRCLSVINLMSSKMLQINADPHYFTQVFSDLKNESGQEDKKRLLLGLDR
pIC50 (CDK5/GST-p25; class symbols),pIC50 (His6-GSK-3β; class symbols),melting point,inhibition at 10 µM (CDK5/GST-p25),pIC50 (His6-GSK-3β; numeric bounds),GSK3β % @10 μM (His6-GSK-3β; @10 μM),pIC50 (CDK5/GST-p25; numeric bounds),SMILES
> 6.52,5.52 to 6.52,360 to 365 °C,,,,,"Cn1cc2c(C3C(=O)Nc4ccc(Br)cc43)ncnc2n1 (stereo not drawn) [Example 82, 5-Bromo-3-(2-methyl-2H-pyrazolo[3,4-d]pyrimidin-4-yl)-1,3-dihydro-indol-2-one]"
5.52 to 6.52,> 6.52,304 to 306 °C,,,,,"Cl.NCCCNc1nc(C2C(=O)Nc3ccc(C(F)(F)F)cc32)c2cn(C3CCCC3)nc2n1 (stereo not drawn) [Example 254, 3-[6-(3-Amino-propylamino)-2-cyclopentyl-2H-pyrazolo[3,4-d]pyrimidin-4-yl]-5-trifluoromethyl-1,3-dihydro-indol-2-one hydrochloride salt]"
> 6.52,5.52 to 6.52,> 300 °C,,,,,"CC(C)n1cc2c(C3C(=O)Nc4ccc(C#N)cc43)ncnc2n1 (stereo not drawn) [Example 382, 3-(2-Isopropyl-2H-pyrazolo[3,4-d]pyrimidin-4-yl)-2-oxo-2,3-dihydro-1H-indole-5-carbonitrile]"
> 6.52,> 6.52,299 to 303 °C,,,,,"CCCn1cc2c(C3C(=O)Nc4ccc(Br)cc43)nc(NCCN3CCOCC3)nc2n1 (stereo not drawn) [Example 202, 5-Bromo-3-[6-(2-morpholin-4-yl-ethylamino)-2-propyl-2H-pyrazolo [3,4-d]pyrimidin-4-yl]-1,3-dihydro-indol-2-one]"
,> 6.52,230 °C (dec.),73%,,,,"CCCCCn1cc2c(C3C(=O)Nc4ccc(C(F)(F)F)cc43)nc(NCCCN3CCOCC3)nc2n1 (stereo not drawn) [Example 290, 3-[6-(3-Morpholin-4-yl-propylamino)-2-pentyl-2H-pyrazolo[3,4-d]pyrimidin-4-yl]-5-trifluoromethyl-1,3-dihydro-indol-2-one]"
> 6.52,> 6.52,> 300 °C (dec.),,,,,"N#Cc1ccc2c(c1)C(c1ncnc3[nH]ncc13)C(=O)N2 (stereo not drawn) [Example 109, 2-Oxo-3-(1H-pyrazolo[3,4-d]pyrimidin-4-yl)-2,3-dihydro-1H-indole-5-carbonitrile]"
> 6.52,> 6.52,338 to 340 °C,,,,,"C[C@H](O)CNc1nc(C2C(=O)Nc3ccc(Br)cc32)c2cn(C)nc2n1 (stereo partly drawn) [Example 304, 5-Bromo-3-[6-(2-(S)-hydroxypropylamino)-2-methyl-2H-pyrazolo [3,4-d]pyrimidin-4-yl]-1,3-dihydro-indol-2-one]"
> 6.52,5.52 to 6.52,> 300 °C,,,,,"CC(C)n1cc2c(C3C(=O)Nc4ccc(Cl)cc43)ncnc2n1 (stereo not drawn) [Example 381, 5-Chloro-3-(2-isopropyl-2H-pyrazolo[3,4-d]pyrimidin-4-yl)-1,3-dihydro-indol-2-one]"
5.52 to 6.52,5.52 to 6.52,291 to 292 °C,,,,,"COCCn1cc2c(C3C(=O)Nc4ccc(Br)cc43)nc(NCCN(C)C)nc2n1 (stereo not drawn) [Example 229, 5-Bromo-3-[6-(2-dimethylamino-ethylamino)-2-(2-methoxy-ethyl)-2H-pyrazolo[3,4-d]pyrimdin-4-yl]-1,3-dihydro-indol-2-one]"
> 6.52,> 6.52,298 to 299 °C,,,,,"CCOCCn1cc2c(C3C(=O)Nc4ccc(Cl)cc43)nc(NCc3ccncc3)nc2n1 (stereo not drawn) [Example 214, 5-Chloro-3-{2-(2-ethoxy-ethyl)-6-[(pyridine-4-ylmethyl)-amino]-2H-pyrazolo[3,4-d]pyrimidin-4-yl}-1,3-dihydro-indol-2-one]"

# Continued, molecule first:
SMILES,pIC50 (CDK5/GST-p25; class symbols),pIC50 (His6-GSK-3β; class symbols),melting point,inhibition at 10 µM (CDK5/GST-p25),pIC50 (His6-GSK-3β; numeric bounds),GSK3β % @10 μM (His6-GSK-3β; @10 μM),pIC50 (CDK5/GST-p25; numeric bounds)
"CC(C)Cn1cc2c(C3C(=O)Nc4ccc(Br)cc43)nc(NCCN(C)C)nc2n1 (stereo not drawn) [Example 268, 5-Bromo-3-[6-(2-dimethylamino-ethylamino)-2-isobutyl-2H-pyrazolo[3,4-d]pyrimidin-4-yl]-1,3-dihydro-indol-2-one]",> 6.52,> 6.52,261 to 264.5 °C,,,,
"CCCn1cc2c(C3C(=O)Nc4ccc(Br)cc43)nc(NCc3cccnc3)nc2n1 (stereo not drawn) [Example 196, 5-Bromo-3-{2-propyl-6-[(pyridin-3-ylmethyl)-amino]-2H-pyrazolo[3,4-d]pyrimidin-4-yl}-1,3-dihydro-indol-2-one]",> 6.52,> 6.52,277 to 281 °C,,,,
"N#Cc1ccc2c(c1)C(c1ncnc3nn(C4CCCC4)cc13)C(=O)N2 (stereo not drawn) [Example 30, 3-(2-Cyclopentyl-2H-pyrazolo[3,4-d]pyrimidin-4-yl)-2-oxo-2,3-dihydro-1H-indole-5-carbonitrile]",> 6.52,> 6.52,> 300 °C (dec.),,,,
"N#Cc1ccc2c(c1)NC(=O)C2c1ncnc2c1cnn2C1CCCC1 (stereo not drawn) [Example 63, 3-(1-Cyclopentyl-1H-pyrazolo [3,4-d]pyrimidin-4-yl)-2-oxo-2,3-dihydro-1H-indole-6-carbonitrile]",< 5.00,5.52 to 6.52,335 to 338 °C,,,,
"CCCn1cc2c(C3C(=O)Nc4ccc(Br)cc43)nc(NCCN)nc2n1 (stereo not drawn) [Example 200, 3-[6-(2-Amino-ethylamino)-2-propyl-2H-pyrazolo [3,4-d]pyrimidin-4-yl]-5-bromo-1,3-dihydro-indol-2-one]",> 6.52,> 6.52,272 to 276 °C,,,,
"O=C1Nc2ccc(F)cc2C1c1ncnc2c1cnn2C1CCCC1 (stereo not drawn) [Example 65, 3-(1-Cyclopentyl-1H-pyrazolo[3,4-d]pyrimidin-4-yl)-5-fluoro-1,3-dihydro-indol-2-one]",< 5.00,< 5.00,254 to 257 °C,,,,
"O=C1Nc2ccccc2C1c1nc(NCc2ccncc2)nc2nn(C3CCCC3)cc12 (stereo not drawn) [Example 241, 3-{2-Cyclopentyl-6-[(pyridin-4-ylmethyl)-amino]-2H-pyrazolo[3,4-d]pyrimidin-4-yl}-1,3-dihydro-indol-2-one]",5.52 to 6.52,> 6.52,198 to 200 °C,,,,
"O=C1Nc2ccc(Cl)cc2C1c1nc(NCCCN2CCOCC2)nc2nn(C3CCCC3)cc12 (stereo not drawn) [Example 278, 5-Chloro-3-[2-cyclopentyl-6-(3-morpholin-4-yl-propylamino)-2H-pyrazolo[3,4-d]pyrimidin-4-yl]-1,3-dihydro-indole-2-one]",5.52 to 6.52,> 6.52,250 to 254.5 °C,,,,
"CCCn1cc2c(C3C(=O)Nc4ccc(Br)cc43)nc(NC[C@@H](C)O)nc2n1 (stereo partly drawn) [Example 195, 5-Bromo-3-[6-((R)-2-hydroxy-propylamino)-2-propyl-2H-pyrazolo [3,4-d]pyrimidin-4-yl]-1,3-dihydro-indol-2-one]",> 6.52,> 6.52,310 °C (dec.),,,,
"N#Cc1ccc2c(c1)C(c1nc(OCCc3cccnc3)nc3nn(C4CCCC4)cc13)C(=O)N2 (stereo not drawn) [Example 164, 3-[2-cyclopentyl-6-(2-pyridin-3-yl-ethoxy)-2H-pyrazolo [3,4-d]pyrimidin-4-yl]-2-oxo-2,3-dihydro-1H-indole-5-carbonitrile]",< 5.00,> 6.52,302 to 304 °C,,,,
"CCCn1cc2c(C3C(=O)Nc4ccc(Cl)cc43)ncnc2n1 (stereo not drawn) [Example 98, 5-Chloro-3-(2-propyl-2H-pyrazolo[3,4-d]pyrimidin-4-yl)-1,3-dihydro-indol-2-one]",> 6.52,> 6.52,302 to 306 °C,,,,
"CC(C)CNc1nc(C2C(=O)Nc3ccccc32)c2cn(C3CCCC3)nc2n1 (stereo not drawn) [Example 244, 3-(2-Cyclopentyl-6-isobutylamino-2H-pyrazolo[3,4-d]pyrimidin-4-yl)-1,3-dihydro-indol-2-one]",< 5.00,,280 to 282 °C,,< 6.00,,
"CCCn1cc2c(C3C(=O)Nc4ccc(Br)cc43)nc(NCCCN(C)C)nc2n1 (stereo not drawn) [Example 198, 5-Bromo-3-[6-(3-dimethylamino-propylamino)-2-propyl-2H-pyrazolo [3,4-d]pyrimidin-4-yl]-1,3-dihydro-indol-2-one]",> 6.52,> 6.52,286 to 290 °C,,,,
"CCCCCn1cc2c(C3C(=O)Nc4ccc(C#N)cc43)nc(NC)nc2n1 (stereo not drawn) [Example 294, 3-(6-Methylamino-2-pentyl-2H-pyrazolo [3,4-d]pyrimidin-4-yl)-2-oxo-2,3-dihydro-1H-indole-5-carbonitrile]",,,> 310 °C,73%,,70% @10 μM,
"CCCn1cc2c(C3C(=O)Nc4ccc(S(=O)(=O)N(C)C)cc43)nc(NCCN(C)C)nc2n1 (stereo not drawn) [Example 205, 3-[6-(2-Dimethylamino-ethylamino)-2-propyl-2H-pyrazolo [3,4-d]pyrimidin-4-yl]-2-oxo-2,3-dihydro-1H-indole-5-sulfonic acid dimethylamide]",,< 5.00,259 to 263 °C,,,,< 5.52
"COCCn1cc2c(C3C(=O)Nc4ccc(Br)cc43)nc(NCc3cccnc3)nc2n1 (stereo not drawn) [Example 232, 5-Bromo-3-{2-(2-methoxy-ethyl)-6-[(pyridin-3-ylmethyl)-amino]-2H-pyrazolo[3,4-d]pyrimidin-4-yl}-1,3-dihydro-indol-2-one]",> 6.52,> 6.52,300 to 301 °C,,,,
"O=C1Nc2cc(F)ccc2C1c1ncnc2nn(C3CCCCC3)cc12 (stereo not drawn) [Example 50, 3-(2-cyclohexyl-2H-pyrazolo[3,4-d]pyrimidin-4-yl)-6-fluoro-1,3-dihydro-indol-2-one]",5.52 to 6.52,5.52 to 6.52,297 to 300 °C,,,,
